Bounds are passed on as bounds.

The first test deals with PGD2.
Assay: not given
The following applies: dosed intranasally, phase I/II study, allergic rhinitis; cited from earlier work.
On to `Oc1cccc(Nc2ncc(F)c(Nc3cccc(O)c3)n2)c1` [Example R112], for which the “decrease in PGD2” value was “statistically significant decrease”.

The next test addresses rhSYK (Homo sapiens, UniProt P43405). The test can be described thus: biochemical.
Conditions: not given
The IC50 is the concentration that gives 50% inhibition. `Cc1cc(Nc2nccc(C)n2)cc(-c2cnc(C3(O)CCC(C(=O)NCc4cccnc4)C(C)C3)s2)c1` (stereo not shown) [Example 119-114] displayed an IC50 of less than 0.1 µM.
On the same count and under the same terms, then `Cc1cc(Nc2nccc(C(C)C)n2)cc(-c2cnc(C3(O)CCC(C(=O)NCc4cccnc4)C(C)C3)s2)c1` (stereo not shown) [Example 119-115], with less than 0.1 µM.
Compound `COc1ccnc(Nc2cc(C)cc(-c3cnc(C4(O)CCC(C(N)=O)C(C)(C)C4)s3)c2)n1` (stereo not shown) [Example 119-117] returned an IC50 of less than 0.1 µM.
As to `Cc1cc(Nc2nccc(C3CC3)n2)cc(-c2cnc(C3(O)CCC(C(N)=O)C(C)(C)C3)s2)c1` (stereo not shown) [Example 119-118], the IC50 is less than 0.1 µM.
Compound `Cc1cc(Nc2nccc(C(C)C)n2)cc(-c2cnc(C3(O)CCC(C(N)=O)C(C)(C)C3)s2)c1` (stereo not shown) [Example 119-119] yielded an IC50 of less than 0.1 µM.
Turning to `Cc1cc(Nc2nccc(C(C)O)n2)cc(-c2cnc(C3(O)CCC(C(N)=O)C(C)(C)C3)s2)c1` (stereo not shown) [Example 119-120], the IC50 is less than 0.1 µM.
The compound `Cc1cc(Nc2nccc(C(C)F)n2)cc(-c2cnc(C3(O)CCC(C(N)=O)C(C)(C)C3)s2)c1` (stereo not shown) [Example 119-122] showed an IC50 of less than 0.1 µM.
Compound `Cc1cc(Nc2nccc(C(C)(C)C)n2)cc(-c2cnc(C3(O)CCC(C(N)=O)C(C)(C)C3)s2)c1` (stereo not shown) [Example 119-125] had an IC50 of less than 0.1 µM.
The compound `Cc1cc(Nc2nccc(C(C)(C)O)n2)cc(-c2cnc(C3(O)CCC(C(N)=O)C(C)(C)C3)s2)c1` (stereo not shown) [Example 119-127] displayed an IC50 of less than 0.1 µM.
`Cc1cc(Nc2nccc(C(F)(F)F)n2)cc(-c2cnc([C@]3(O)CC[C@@H](C(N)=O)C(C)(C)C3)s2)c1` [Example 119-131] had an IC50 of less than 0.1 µM.
Same read-out and setting: then `COc1ccnc(Nc2cc(C)cc(-c3cnc([C@@]4(O)CC[C@H](C(=O)NCC#N)C(C)(C)C4)s3)c2)n1` [Example 119-133], with less than 0.1 µM; and `COc1ccnc(Nc2cc(C)cc(-c3cnc([C@@]4(O)CC[C@H](C(=O)NCc5cccnc5)C(C)(C)C4)s3)c2)n1` [Example 119-134], with less than 0.1 µM; and `Cc1cc(Nc2nccc(C)n2)cc(-c2cnc([C@@]3(O)CC[C@H](C(=O)NCCCN4CCCC4=O)C(C)(C)C3)s2)c1` [Example 119-135], with less than 0.1 µM.
With `Cc1cc(Nc2nccc(C(F)(F)F)n2)cc(-c2cnc([C@@]3(O)CC[C@H](C(=O)Nc4cccnc4)C(C)(C)C3)s2)c1` [Example 119-136], the IC50 was less than 0.1 µM.
`Cc1cc(Nc2nccc(C(F)(F)F)n2)cc(-c2cnc([C@]3(O)CC[C@@H](C(=O)N4CCc5cc(O)c(O)cc5C4)CC3)s2)c1` [Example 119-138] gave an IC50 of less than 0.1 µM.
With `COc1cccc(N2CCN(C(=O)C3CCC(O)(c4ncc(-c5cc(C)cc(Nc6nccc(C(F)(F)F)n6)c5)s4)CC3)CC2)c1` (stereo not shown) [Example 119-139], the IC50 is less than 0.1 µM.
As to `COCc1cc(Nc2nccc(C(F)(F)F)n2)cc(-c2cnc(C3(O)CCC(C(N)=O)C(C)C3)s2)c1` (stereo not shown) [Example 119-142], the IC50 is less than 0.1 µM.
Regarding `COCc1cc(Nc2nccc(C(F)(F)F)n2)cc(-c2cnc([C@@]3(O)CC[C@H](C(N)=O)C(C)(C)C3)s2)c1` [Example 119-143], the IC50 is less than 0.1 µM.
Regarding `CC1(C)C[C@@](O)(c2ncc(-c3cc(Cl)cc(Nc4nccc(C(F)(F)F)n4)c3)s2)CC[C@@H]1C(N)=O` [Example 119-144], the IC50 was less than 0.1 µM.
Still for that read-out and setting: as for `NC(=O)[C@H]1CC[C@](O)(c2ncc(-c3cc(Cl)cc(Nc4nccc(C(F)(F)F)n4)c3)s2)CC1` [Example 119-145], the figure is less than 0.1 µM; as for `Cc1cc(Nc2nccc(C(F)(F)F)n2)cc(-c2cnc([C@]3(O)CC[C@@H](C(=O)NC(CO)CO)CC3)s2)c1` [Example 191-33], less than 0.1 µM.
`Cc1cc(Nc2nccc(C(F)(F)F)n2)cc(-c2cnc(C3(O)CCC(C(=O)NCc4cccnc4)CC3)s2)c1` (stereo not shown) [Example 191-52] came in with an IC50 of less than 0.1 µM.
In turn, `Cc1cc(Nc2nccc(C(F)(F)F)n2)cc(-c2cnc([C@]3(O)CC[C@@H](C(=O)NCc4ccncc4)CC3)s2)c1` [Example 191-53] yielded an IC50 of less than 0.1 µM.
Turning to `CC1(C)CC(O)(c2ncc(-c3cc(CO)cc(Nc4nccc(C(F)(F)F)n4)c3)s2)CCC1C(N)=O` (stereo not shown) [Example 191-141], the IC50 was less than 0.1 µM.

(Values after patent publication US8551984B2, “Aminopyrimidines as SYK inhibitors” (Merck Sharp & Dohme Corp., priority 2009, dated 2013).)
